Laboratory results reported in PubChem BioAssay (NCI).
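Following 48 hours of exposure in 96-well plates, responses at five concentrations were used to interpolate endpoints linearly. GI50 is the concentration that inhibits growth by half. TGI: total growth inhibition.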

How the values were obtained:
Assay in all cases: inhibition of tumour cell growth, NCI panel, 48 h
786-0 renal = tested on: 786-0 renal
A498 renal = tested on: A498 renal
A549 NSCLC = tested on: A549 NSCLC
ACHN renal = tested on: ACHN renal
BT-549 breast = tested on: BT-549 breast
CAKI-1 renal = tested on: CAKI-1 renal
CCRF-CEM leukemia = tested on: CCRF-CEM leukemia
COLO 205 colon = tested on: COLO 205 colon
DU-145 prostate = tested on: DU-145 prostate
EKVX NSCLC = tested on: EKVX NSCLC
HCC-2998 colon = tested on: HCC-2998 colon
HCT-116 colon = tested on: HCT-116 colon
HCT-15 colon = tested on: HCT-15 colon
HL-60(TB) leukemia = tested on: HL-60(TB) leukemia
HOP-62 NSCLC = tested on: HOP-62 NSCLC
HOP-92 NSCLC = tested on: HOP-92 NSCLC
HS 578T breast = tested on: HS 578T breast
HT29 colon = tested on: HT29 colon
IGROV1 ovarian = tested on: IGROV1 ovarian
K-562 leukemia = tested on: K-562 leukemia
KM12 colon = tested on: KM12 colon
LOX IMVI melanoma = tested on: LOX IMVI melanoma
M14 melanoma = tested on: M14 melanoma
MALME-3M melanoma = tested on: MALME-3M melanoma
MCF7 breast = tested on: MCF7 breast
MDA-MB-231 breast = tested on: MDA-MB-231 breast
MDA-MB-435 = tested on: MDA-MB-435
MOLT-4 leukemia = tested on: MOLT-4 leukemia
NCI-H226 lung = tested on: NCI-H226 lung
NCI-H23 lung = tested on: NCI-H23 lung
NCI-H460 lung = tested on: NCI-H460 lung
NCI-H522 lung = tested on: NCI-H522 lung
NCI/ADR-RES ovarian = tested on: NCI/ADR-RES ovarian
OVCAR-3 ovarian = tested on: OVCAR-3 ovarian
OVCAR-4 ovarian = tested on: OVCAR-4 ovarian
OVCAR-5 ovarian = tested on: OVCAR-5 ovarian
OVCAR-8 ovarian = tested on: OVCAR-8 ovarian
PC-3 prostate = tested on: PC-3 prostate
RPMI-8226 leukemia = tested on: RPMI-8226 leukemia
RXF 393 renal = tested on: RXF 393 renal
SF-268 CNS = tested on: SF-268 CNS
SF-295 CNS = tested on: SF-295 CNS
SF-539 CNS = tested on: SF-539 CNS
SK-MEL-2 melanoma = tested on: SK-MEL-2 melanoma
SK-MEL-28 melanoma = tested on: SK-MEL-28 melanoma
SK-MEL-5 melanoma = tested on: SK-MEL-5 melanoma
SK-OV-3 ovarian = tested on: SK-OV-3 ovarian
SN12C renal = tested on: SN12C renal
SNB-19 CNS = tested on: SNB-19 CNS
SNB-75 CNS = tested on: SNB-75 CNS
SR leukemia = tested on: SR leukemia
SW-620 colon = tested on: SW-620 colon
T-47D breast = tested on: T-47D breast
TK-10 renal = tested on: TK-10 renal
U251 CNS = tested on: U251 CNS
UACC-257 melanoma = tested on: UACC-257 melanoma
UACC-62 melanoma = tested on: UACC-62 melanoma
UO-31 renal = tested on: UO-31 renal

Cn1ccnc1C(=O)/C=C/c1ccc(C(=O)Nc2ccc(F)cc2)cc1
GI50 (786-0 renal): 1140 nM
TGI (786-0 renal): 3140 nM
GI50 (A498 renal): 1050 nM
TGI (A498 renal): 3530 nM
GI50 (A549 NSCLC): 1410 nM
TGI (A549 NSCLC): > 50000 nM
GI50 (ACHN renal): 1010 nM
TGI (ACHN renal): 2110 nM
GI50 (BT-549 breast): 667 nM
TGI (BT-549 breast): 4220 nM
GI50 (CAKI-1 renal): 1070 nM
TGI (CAKI-1 renal): > 50000 nM
GI50 (CCRF-CEM leukemia): 853 nM
TGI (CCRF-CEM leukemia): > 50000 nM
GI50 (COLO 205 colon): 1470 nM
TGI (COLO 205 colon): 5420 nM
GI50 (DU-145 prostate): 1610 nM
TGI (DU-145 prostate): > 50000 nM
GI50 (EKVX NSCLC): 2200 nM
TGI (EKVX NSCLC): 20800 nM
GI50 (HCC-2998 colon): 915 nM
TGI (HCC-2998 colon): 2000 nM
GI50 (HCT-116 colon): 343 nM
TGI (HCT-116 colon): 1120 nM
GI50 (HCT-15 colon): 274 nM
TGI (HCT-15 colon): 2500 nM
GI50 (HL-60(TB) leukemia): 933 nM
TGI (HL-60(TB) leukemia): 3120 nM
GI50 (HOP-62 NSCLC): 1380 nM
TGI (HOP-62 NSCLC): > 16400 nM
GI50 (HOP-92 NSCLC): 1310 nM
TGI (HOP-92 NSCLC): > 41000 nM
GI50 (HS 578T breast): 1660 nM
TGI (HS 578T breast): > 50000 nM
GI50 (HT29 colon): 877 nM
TGI (HT29 colon): > 50000 nM
GI50 (IGROV1 ovarian): 1240 nM
TGI (IGROV1 ovarian): 4440 nM
GI50 (K-562 leukemia): 163 nM
TGI (K-562 leukemia): > 50000 nM
GI50 (KM12 colon): 481 nM
TGI (KM12 colon): 2000 nM
GI50 (LOX IMVI melanoma): 520 nM
TGI (LOX IMVI melanoma): 1350 nM
GI50 (M14 melanoma): 1160 nM
TGI (M14 melanoma): 3810 nM
GI50 (MALME-3M melanoma): 3270 nM
TGI (MALME-3M melanoma): > 50000 nM
GI50 (MCF7 breast): 472 nM
TGI (MCF7 breast): > 50000 nM
GI50 (MDA-MB-231 breast): 1710 nM
TGI (MDA-MB-231 breast): > 50000 nM
GI50 (MDA-MB-435): 1590 nM
TGI (MDA-MB-435): 11000 nM
GI50 (MOLT-4 leukemia): 1480 nM
TGI (MOLT-4 leukemia): > 50000 nM
GI50 (NCI-H226 lung): 1510 nM
TGI (NCI-H226 lung): > 12400 nM
GI50 (NCI-H23 lung): 1300 nM
TGI (NCI-H23 lung): 5360 nM
GI50 (NCI-H460 lung): 1060 nM
TGI (NCI-H460 lung): 2660 nM
GI50 (NCI-H522 lung): 1170 nM
TGI (NCI-H522 lung): 4700 nM
GI50 (NCI/ADR-RES ovarian): 1250 nM
TGI (NCI/ADR-RES ovarian): > 50000 nM
GI50 (OVCAR-3 ovarian): 812 nM
TGI (OVCAR-3 ovarian): 4280 nM
GI50 (OVCAR-4 ovarian): 1380 nM
TGI (OVCAR-4 ovarian): > 50000 nM
GI50 (OVCAR-5 ovarian): 1540 nM
TGI (OVCAR-5 ovarian): 26500 nM
GI50 (OVCAR-8 ovarian): 1490 nM
TGI (OVCAR-8 ovarian): > 50000 nM
GI50 (PC-3 prostate): 1250 nM
TGI (PC-3 prostate): > 50000 nM
GI50 (RPMI-8226 leukemia): 224 nM
TGI (RPMI-8226 leukemia): 1540 nM
GI50 (RXF 393 renal): 780 nM
TGI (RXF 393 renal): 1640 nM
GI50 (SF-268 CNS): 1910 nM
TGI (SF-268 CNS): > 50000 nM
GI50 (SF-295 CNS): 1820 nM
TGI (SF-295 CNS): > 37100 nM
GI50 (SF-539 CNS): 851 nM
TGI (SF-539 CNS): 1790 nM
GI50 (SK-MEL-2 melanoma): 5660 nM
TGI (SK-MEL-2 melanoma): 39700 nM
GI50 (SK-MEL-28 melanoma): 1800 nM
TGI (SK-MEL-28 melanoma): 9650 nM
GI50 (SK-MEL-5 melanoma): 1490 nM
TGI (SK-MEL-5 melanoma): 4630 nM
GI50 (SK-OV-3 ovarian): 2550 nM
TGI (SK-OV-3 ovarian): > 50000 nM
GI50 (SN12C renal): 1370 nM
TGI (SN12C renal): > 50000 nM
GI50 (SNB-19 CNS): 1360 nM
TGI (SNB-19 CNS): 6310 nM
GI50 (SNB-75 CNS): 919 nM
TGI (SNB-75 CNS): 16800 nM
GI50 (SR leukemia): 171 nM
TGI (SR leukemia): 3110 nM
GI50 (SW-620 colon): 223 nM
TGI (SW-620 colon): 7970 nM
GI50 (T-47D breast): 1240 nM
TGI (T-47D breast): > 50000 nM
GI50 (TK-10 renal): 1510 nM
TGI (TK-10 renal): 7490 nM
GI50 (U251 CNS): 747 nM
TGI (U251 CNS): 2710 nM
GI50 (UACC-257 melanoma): 3140 nM
TGI (UACC-257 melanoma): > 50000 nM
GI50 (UACC-62 melanoma): 1370 nM
TGI (UACC-62 melanoma): 4860 nM
GI50 (UO-31 renal): 814 nM
TGI (UO-31 renal): 2690 nM
